In the experiment the target is T1, recombinant human 15-PGDH (Homo sapiens, UniProt P15428).
T1 construct: purchased R&D Systems
T1 sequence (P15428 1-266): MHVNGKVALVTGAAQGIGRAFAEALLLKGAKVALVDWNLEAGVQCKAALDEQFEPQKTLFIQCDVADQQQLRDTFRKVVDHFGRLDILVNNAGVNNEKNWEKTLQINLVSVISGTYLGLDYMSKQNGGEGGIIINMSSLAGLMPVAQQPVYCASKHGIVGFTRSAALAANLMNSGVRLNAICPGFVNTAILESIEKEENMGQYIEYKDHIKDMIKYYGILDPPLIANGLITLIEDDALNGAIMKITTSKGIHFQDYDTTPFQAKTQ
As to the kind of experiment: 15-PGDH enzyme inhibition test. The format is biochemical. The settings on record: 4 nM recombinant human 15-PGDH, 30 μM PGE2, 1 mM NAD+, 60 minutes after starting the reaction; read-out: IC50 Value. The essentials:
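Fluorescence (excitation 340 nm, emission 440 nm) measured 60 min after adding 1 mM NAD+ and 30 μM PGE2 to 4 nM recombinant human 15-PGDH, which had stood 12 min at room temperature with compound in pH 8.0 Tris-HCl buffer. Concentration-response curves yield IC50, binned into potency categories.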

The term IC50 denotes the midpoint of a concentration-inhibition curve. For `Cn1nnnc1-c1ccc(N2CCOc3cc(C(=O)N4CCCCC4)cnc32)cc1` [Example 1-251], the IC50 is < 0.01 µM.
Under `O=C(O)c1ccc(N2CCOc3cc(C(=O)N4CC=CCC4)cnc32)cc1` [Example 4-9] stands < 0.01 µM; under `CC(C)(NS(C)(=O)=O)c1ccc(N2CCOc3cc(C(=O)N4CCCCC4)cnc32)cc1` [Example 31-2], > 0.1 µM; under `COCn1nc2cc(N3CCCc4cc(C(=O)N5CCC[C@H](CF)C5)cnc43)ccn2c1=O` [Example 1-114], < 0.01 µM.
For the compound `O=C(c1cnc2c(c1)OCCN2c1ccc(F)cc1)N1CCCCC1` [Example 1-236], the IC50 was > 0.1 µM.
Under `COC(=O)c1ccccc1N1CCOc2cc(C(=O)N3CCCCC3)ccc21` [Example 1-137] stands > 0.1 µM; under `COc1cc(N2CCOc3cc(C(=O)N4CC=CCC4)ccc32)ccc1C(N)=O` [Example 5-1, 2-Methoxy-4-(7-(1,2,3,6-tetrahydropyridine-1-carbonyl)-2,3-dihydro-4H-benzo[b][1,4]oxazin-4-yl)benzamide], < 0.01 µM.
In the case of `COCCN1Cc2cc(N3CCOc4cc(C(=O)N5CCC(F)(F)CC5)cnc43)ncc2C1=O` [Example 1-266] it was 0.01 to 0.1 µM.
As to `Cn1ncc2cc(N3CCOc4cc(C(=O)N5CCCCC5)cnc43)ccc2c1=O` [Example 1-218], the IC50 is < 0.01 µM.
In the case of `CNC(=O)c1ncc(N2CCCc3cc(C(=O)N4CCC(F)(F)CC4)cnc32)cc1F` [Example 1-180] it was < 0.01 µM; in that of `Cn1nc2cc(N3CCOc4cc(C(=O)N5CCC[C@H](O)C5)cnc43)ccn2c1=O` [Example 8-38], < 0.01 µM.
On to `COc1c(C(=O)N2CCCCC2)ccc2c1OCCN2c1ccn2c(=O)n(C)nc2c1` [Example 1-100], for which the IC50 is < 0.01 µM.
Under `CN1Cc2nc(N3CCOc4cc(C(=O)N5CCCCC5)cnc43)ccc2C1=O` [Example 1-102] stands 0.01 to 0.1 µM; under `O=C(O)c1ccc(N2CCCOc3cc(C(=O)N4CCCCC4)ccc32)cc1` [Example 2-5], < 0.01 µM; under `Cn1nc2cc(N3CCCc4cc(C(=O)N5CCc6ccccc6C5)cnc43)ccn2c1=O` [Example 8-130], < 0.01 µM.
Turning to `CS(=O)(=O)CCc1ccc(N2CCOc3cc(C(=O)N4CCCCC4)ccc32)cc1` [Example 1-161], the concentration for half-maximal inhibition (IC50) was < 0.01 µM.
In the case of `CCN1Cc2cc(N3CCCc4cc(C(=O)N5CCC[C@@H](C)C5)cnc43)ccc2C1=O` [Example 8-89] it was < 0.01 µM.
Consider `CCn1nc2cc(N3CCOc4cc(C(=O)N5CCCC5)cnc43)ccn2c1=O` [Example 8-19], for which the IC50 is < 0.01 µM.
In the case of `Cn1nc2cc(N3CCOc4cc(C(=O)N5CCCC(C)(F)C5)cnc43)ccn2c1=O` (single isomer, unassigned) [23-2 Isomer A] it was < 0.01 µM; in that of `O=C(c1cnc2c(c1)OCCN2c1ccn2c(=O)n(Cc3ccnc(Cl)c3)nc2c1)N1CCC(F)(F)CC1` [Example 27-7], < 0.01 µM; in that of `O=C(c1cnc2c(c1)OCCN2c1ccc2nccnc2c1)N1CCCCC1` [Example 1-258], < 0.01 µM.
Under `O=C(O)c1ccc(N2CCCc3cc(C(=O)N4CCCCC4)ccc32)cc1` [Example 2-26] stands < 0.01 µM; under `Cn1nc2cc(N3CCOc4cc(C(=O)N5C[C@H]6CCC[C@H]6C5)cnc43)ccn2c1=O` [Example 8-98], < 0.01 µM.
Under `COC(=O)c1ccc(N2CCCc3cc(C(=O)N4CCCCC4)cnc32)cc1` [Example 1-205] stands < 0.01 µM; under `CN1C(=O)c2cc(N3CCOc4cc(C(=O)N5CCCCC5)cnc43)ccc2S1(=O)=O` [Example 1-164], 0.01 to 0.1 µM; under `CN1Cc2cc(N3CCOc4cc(C(=O)N5CCCCC5)cnc43)cnc2C1=O` [Example 1-101], < 0.01 µM.
For `CCN1Cc2cc(N3CCCc4cc(C(=O)N5CCCC[C@@H]5C)cnc43)ccc2C1=O` [Example 8-79], the IC50 was < 0.01 µM.
Under `CN1Cc2cc(N3CCOc4cc(C(=O)N5CCC[C@@H](F)C5)cnc43)ccc2C1=O` [Example 8-199] stands < 0.01 µM; under `Cn1nc2cc(N3CCOc4cc(C(=O)N5CCC(F)CC5)cnc43)ccn2c1=O` [Example 8-114], < 0.01 µM.
Under `O=C(c1cnc2c(c1)CCCN2c1cc2c(cn1)C(=O)N(C1COC1)C2)N1CCCCC1` [Example 1-74] stands 0.01 to 0.1 µM; under `COC(=O)c1ccc(N2CCOc3cc(C(=O)N4CCCCC4)cnc32)cc1` [Example 1-261], < 0.01 µM; under `CN1Cc2cc(N3CCCc4cc(C(=O)N5CCCCC5)cnc43)ncc2C1=O` [Example 1-56], 0.01 to 0.1 µM.
For `C[C@@H]1CCCN(C(=O)c2cnc3c(c2)OCCN3c2ccn3c(=O)n(C)nc3c2)C1` [Example 8-31], the IC50 was < 0.01 µM.
In the case of `O=C(c1cnc2c(c1)CCCN2c1ccc(-c2nn[nH]n2)cc1)N1CCCCC1` [Example 14-7] it was < 0.01 µM; in that of `CN1Cc2cc(N3CCOc4cc(C(=O)N5CCCCCC5)cnc43)ccc2C1=O` [Example 8-186], < 0.01 µM.
Under `O=C(c1cnc2c(c1)OCCN2c1ccc2c(=O)[nH]ncc2c1)N1CCCCC1` [Example 14-8] stands < 0.01 µM; under `O=C(c1cnc2c(c1)CCCN2c1ccc2c(=O)[nH]ccc2c1)N1CCC(F)(F)CC1` [Example 1-181], < 0.01 µM.
On to `Cn1nc2cc(N3CCOc4cc(C(=O)N5CCCCCC5)cnc43)ccn2c1=O` [Example 8-102], for which the IC50 was < 0.01 µM.
As to `CCCN(C)C(=O)c1cnc2c(c1)OCCN2c1ccn2c(=O)n(C)nc2c1` [Example 17-1, N-Methyl-4-(2-methyl-3-oxo-2,3-dihydro-[1,2,4]triazolo[4,3-a]pyridin-7-yl)-N-propyl-3,4-dihydro-2H-pyrido[3,2-b][1,4]oxazine-7-carboxamide], the IC50 was < 0.01 µM.
In the case of `CN1CCN(C(=O)c2cnc3c(c2)OCCN3c2ccn3c(=O)n(C)nc3c2)CC1` [Example 8-226] it was 0.01 to 0.1 µM; in that of `CCCn1nc2cc(N3CCCc4cc(C(=O)N5CCCCC5)cnc43)ccn2c1=O` [Example 1-202], < 0.01 µM.
Regarding `C[C@H]1CCCN(C(=O)c2cnc3c(c2)OCCCN3c2ccn3c(=O)n(C)nc3c2)C1` [Example 8-61], the IC50 is < 0.01 µM.
Under `O=C(O)c1ccc(N2CCOc3cc(C(=O)N4CCCCC4)cnc32)cn1` [Example 2-38] stands < 0.01 µM; under `Cn1nnc(-c2ccc(N3CCOc4cc(C(=O)N5CCCCC5)cnc43)cc2)n1` [Example 1-252], < 0.01 µM; under `CNC(=O)c1ncc(N2CCCc3cc(C(=O)N4CCCCC4)cnc32)cc1F` [Example 1-69], < 0.01 µM.
As for `O=C(O)c1ccc(N2CCOc3cc(C(=O)N4CCCCC4)cnc32)cc1Cl` [Example 4-17], the IC50 was < 0.01 µM.
Turning to `O=C(O)c1ccc(N2CCOc3cc(C(=O)N4CCOCC4)cnc32)cc1` [Example 4-10], the IC50 was in the range of 0.01 to 0.1 µM.
In the case of `CCn1nc2cc(N3CCCc4cc(C(=O)N5CCC5)cnc43)ccn2c1=O` [Example 8-147] it was < 0.01 µM; in that of `CCn1nc2cc(N3CCOc4cc(C(=O)N5CCCCC5)cnc43)ccn2c1=O` [Example 8-15], < 0.01 µM.
Regarding `CN1Cc2ccc(N3CCOc4cc(C(=O)N5CCCCC5)cnc43)cc2C1=O` [Example 1-225], the IC50 was 0.01 to 0.1 µM.
Under `O=C(c1cnc2c(c1)OCCN2c1ccn2c(=O)n(CC3COC3)nc2c1)N1CCCCC1` [Example 1-36] stands < 0.01 µM; under `CCn1nc2cc(N3CCOc4cc(C(=O)N5CCCCCCC5)cnc43)ccn2c1=O` [Example 8-17], < 0.01 µM.
In the case of `O=C(c1cnc2c(c1)CCCN2c1ccc2c(c1)CN(C1COC1)C2=O)N1CCC(F)(F)CC1` [Example 1-178] it was < 0.01 µM.
Turning to `CN1Cc2cc(N3CCOc4cc(C(=O)N5CCC[C@H](F)C5)cnc43)ccc2C1=O` [Example 8-200], the IC50 is < 0.01 µM.
Take `CCN1Cc2cc(N3CCCc4cc(C(=O)N5CCC(F)(F)C(C)C5)cnc43)ccc2C1=O` (stereo not shown) [Example 8-82]: the IC50 was < 0.01 µM.
In the case of `CCn1nc2cc(N3CCOc4cc(C(=O)N5CCC5)cnc43)ccn2c1=O` [Example 8-16] it was < 0.01 µM; in that of `O=C(c1cnc2c(c1)OCCN2c1ccn2c(=O)n(Cc3cccnc3)nc2c1)N1CCCCC1` [Example 1-32], < 0.01 µM.
Under `Cn1nc2cc(N3CCOc4cc(C(=O)N5CCCC6(CCC6)C5)cnc43)ccn2c1=O` [Example 8-67] stands < 0.01 µM.
Take `O=C1NCc2cc(N3CCOc4cc(C(=O)N5CCC(F)(F)CC5)ccc43)ccc21` [Example 14-3]: the IC50 is < 0.01 µM.
`CC(=O)N(C)C1CCCN(C(=O)c2cnc3c(c2)OCCN3c2ccn3c(=O)n(C)nc3c2)C1` (stereo not shown) [Example 34-1, N-Methyl-N-(1-(4-(2-methyl-3-oxo-2,3-dihydro-[1,2,4]triazolo[4,3-a]pyridin-7-yl)-3,4-dihydro-2H-pyrido[3,2-b][1,4]oxazin-7-carbonyl)piperidin-3-yl)acetamide]: the IC50 is > 0.1 µM.
Under `C[C@@H]1COc2cc(C(=O)N3CCCCC3)ccc2N(c2ccn3c(=O)n(C)nc3c2)C1` [Example 1-96] stands < 0.01 µM; under `CCOC(=O)c1ccc(N2CCOc3cc(C(=O)N4CCCCC4)cnc32)s1` [Example 1-264], < 0.01 µM; under `CCn1nc2cc(N3CCCc4cc(C(=O)N5CCCC[C@@H]5C)cnc43)ccn2c1=O` [Example 8-158], < 0.01 µM.
In the case of `O=C(O)c1ccccc1N1CCCc2cc(C(=O)N3CCCCC3)cnc21` [Example 1-212] it was 0.01 to 0.1 µM.
